Values of other authors in patent US20200155524A1, “METHOD FOR REDUCING SIDE EFFECTS FROM ADMINISTRATION OF PHOSPHODIESTERASE-4 INHIBITORS” (ARCUTIS, INC., priority 2018, published 2020).
Read-outs that look alike come from different tables or passages of the source.

Experiments:
[1] = test system: PDE-4 isoforms and subtypes; details: different PDE-4 isoforms and subtypes
psoriasis = details: after 4 weeks of dosing
[2] = initial oral administration

Row | Structure (SMILES) | half maximal inhibitory concentration (IC50) [1] | PASI 75 response rate (psoriasis) | Tmax (time after administration to reach Cmax) ([2]; 250 mcg tablet) | Tmax (time after administration to reach Cmax) ([2]; 500 mcg tablet)
1 | O=C(Nc1c(Cl)c[n+]([O-])cc1Cl)c1ccc(OC(F)F)c(OCC2CC2)c1 [roflumilast N-oxide, 3-cyclopropylmethoxy-4-difluoromethoxy-N-(3,5-dichloropyrid-4-yl 1-oxide)benzamide] | subnanomolar | – | – | –
2 | CCC(=O)OCC(=O)[C@@]1(OC(=O)CC)[C@@H](C)C[C@H]2[C@@H]3CCC4=CC(=O)C=C[C@]4(C)[C@@]3(F)[C@@H](O)C[C@@]21C [betamethasone dipropionate 0.064%, betamethasone dipropionate] | – | 32.7% | – | –
3 | O=C(Nc1c(Cl)cncc1Cl)c1ccc(OC(F)F)c(OCC2CC2)c1 [roflumilast, N-(3,5-dichloropyrid-4-yl)-3-cyclopropylmethoxy-4-difluoromethoxybenzamid-e] | subnanomolar | – | 1 h | 1 h
